# In US11319315B2, “Cyclohexyl acid triazole azoles as LPA antagonists” (BRISTOL-MYERS SQUIBB COMPANY, priority 2017, dated 2022):
# How the values were obtained:
# IPF patients = conditions: 26-week clinical trial in IPF patients; cited from earlier work
# nerve-injured mice = conditions: pretreatment; cited from earlier work
# CD-1 female mice = assay: LPA challenge with plasma histamine evaluation (acute in vivo histamine assay); set-up: species or system mouse; conditions: 1 mg/kg dose
# Experimental: LPA Challenge with Plasma Histamine Evaluation.
# Compound is dosed orally p.o. 2 hours to CD-1 female mice prior to the LPA challenge. The mice are then dosed via tail vein (IV) with 0.15 mL of LPA in 0.1% BSA/PBS (2 μg/μL). Exactly 2 minutes following the LPA challenge, the mice are euthanized by decapitation and the trunk blood is collected. These samples are collectively centrifuged and individual 75 μL samples are frozen at −20° C. until the time of the histamine assay.
# The plasma histamine analysis was run by standard EIA (Enzyme Immunoassay) methods. Plasma samples were thawed and diluted 1:30 in 0.1% BSA in PBS. The EIA protocol for histamine analysis as outlined by the manufacturer was followed (Histamine EIA, Oxford Biomedical Research, EA #31).
# The LPA used in the assay is formulated as follows: LPA (l-oleoyl-2-hydroxy-sn-glycero-3-phosphate (sodium salt), 857130P, Avanti Polar Lipids) is prepared in 0.1% BSA/PBS for total concentration of 2 μg/μL. 13 mg of LPA is weighed and 6.5 mL 0.1% BSA added, vortexed and sonicated for 1 hour until a clear solution is achieved.
# human LPA1 = molecular target: T1, human LPA1 (Homo sapiens, UniProt Q92633); assay: LPA1 functional antagonist assay (LPA-induced calcium flux in CHO cells overexpressing human LPA1); format: cell-based; conditions: inhibition of calcium flux induced by 10 nM LPA, CHO cells overexpressing human LPA1; read-out: hLPA1 IC50
# T1 construct: expressed in transfected cells; host or cells: Chinese hamster ovary (CHO) cells
# T1 sequence (Q92633 whole entry): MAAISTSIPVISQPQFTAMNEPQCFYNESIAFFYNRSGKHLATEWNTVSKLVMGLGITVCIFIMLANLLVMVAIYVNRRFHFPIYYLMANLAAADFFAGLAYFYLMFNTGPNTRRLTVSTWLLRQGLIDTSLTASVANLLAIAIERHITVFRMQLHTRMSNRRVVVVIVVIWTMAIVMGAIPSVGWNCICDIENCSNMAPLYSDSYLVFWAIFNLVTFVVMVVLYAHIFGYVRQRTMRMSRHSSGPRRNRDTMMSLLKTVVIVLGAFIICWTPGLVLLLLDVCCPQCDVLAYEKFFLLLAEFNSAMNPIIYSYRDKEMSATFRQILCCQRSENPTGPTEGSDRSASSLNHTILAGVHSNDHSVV
# Outline: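 CHO cells overexpressing human LPA1, dye-loaded 30 min at 37 °C, then given compound (0.08 nM–5 μM final, 0.5% DMSO) in HBSS/20 mM HEPES/0.1% fatty-acid-free BSA for 20 min at room temperature before 10 nM LPA. IC50 as 50% inhibition of LPA-evoked calcium flux, 4-parameter logistic fit.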
# [1] = test system: pancreatic cancer cell lines; conditions: cited from earlier work
# [2] = test system: human foetal lung fibroblasts; conditions: cited from earlier work
# UUO mice = conditions: cited from earlier work
# MCT = MCT cells, co-treatment with LPA; cited from earlier work
structure (smiles),measurement,setting,value
Cc1noc(-c2ccc(-c3ccc(C4(C(=O)O)CC4)cc3)cc2)c1NC(=O)O[C@H](C)c1ccccc1 [BMS-986020],rate of FVC (forced vital capacity) decline,IPF patients,significantly reduce
C[C@@H](N)[C@H]1CC[C@H](C(=O)Nc2ccncc2)CC1 [Example Y-27632],allodynia and hyperalgesia,nerve-injured mice,completely abolished
Cc1nc(-c2nnn(C)c2CNc2noc(CC3CC3)n2)ccc1O[C@H]1CCC[C@H](C(=O)O)C1 [Example 70],"histamine, acute in vivo histamine assay in CD-1 mice",CD-1 female mice,−39%
same,IC50,human LPA1,15 nM
Cc1noc(-c2ccc(CSCCC(=O)O)cc2)c1NC(=O)OC(C)c1ccccc1Cl (stereo not drawn) [Ki16425],LPA-induced and ascites-induced invasion activity,[1]; highly peritoneal metastatic pancreatic cancer cell line,blocked
same,in vitro migration in response to LPA and peritoneal fluid (ascites) from pancreatic cancer patients,[1]; pancreatic cancer cell lines,effectively blocked
same,chemotaxis of human foetal lung fibroblasts induced by BAL from IPF patients,[2],blocked
same,renal fibrosis profile in UUO mice,UUO mice,closely resembled the profile of LPA1 (−/−) mice
same,LPA-induced CTGF expression,MCT,almost completely suppressed
